Data taken from PubChem BioAssay (NCI).
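1) Cells in 96-well plates. 2) Compound, 48 h, 5 concentrations. 3) Linear interpolation between surrounding doses. 4) Unreached endpoint = highest concentration. GI50 marks 50% less growth. TGI: total growth inhibition.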

Key:
Experiment in all cases: NCI-60 cell line screen, 48 h
A498 renal = test system: A498 renal
HCC-2998 colon = test system: HCC-2998 colon
PC-3 prostate = test system: PC-3 prostate
SK-MEL-2 melanoma = test system: SK-MEL-2 melanoma
MDA-MB-435 = test system: MDA-MB-435
U251 CNS = test system: U251 CNS
RXF 393 renal = test system: RXF 393 renal
786-0 renal = test system: 786-0 renal
KM12 colon = test system: KM12 colon
COLO 205 colon = test system: COLO 205 colon
NCI-H460 lung = test system: NCI-H460 lung
OVCAR-8 ovarian = test system: OVCAR-8 ovarian
RPMI-8226 leukemia = test system: RPMI-8226 leukemia
SF-295 CNS = test system: SF-295 CNS
K-562 leukemia = test system: K-562 leukemia
HOP-62 NSCLC = test system: HOP-62 NSCLC
OVCAR-3 ovarian = test system: OVCAR-3 ovarian
SF-539 CNS = test system: SF-539 CNS
EKVX NSCLC = test system: EKVX NSCLC
OVCAR-4 ovarian = test system: OVCAR-4 ovarian
UO-31 renal = test system: UO-31 renal
NCI-H23 lung = test system: NCI-H23 lung
HS 578T breast = test system: HS 578T breast
M14 melanoma = test system: M14 melanoma
T-47D breast = test system: T-47D breast
UACC-257 melanoma = test system: UACC-257 melanoma
HCT-15 colon = test system: HCT-15 colon
MDA-MB-231 breast = test system: MDA-MB-231 breast
HT29 colon = test system: HT29 colon
HL-60(TB) leukemia = test system: HL-60(TB) leukemia
ACHN renal = test system: ACHN renal
CAKI-1 renal = test system: CAKI-1 renal
A549 NSCLC = test system: A549 NSCLC
MALME-3M melanoma = test system: MALME-3M melanoma
HOP-92 NSCLC = test system: HOP-92 NSCLC
UACC-62 melanoma = test system: UACC-62 melanoma
NCI-H522 lung = test system: NCI-H522 lung
SK-MEL-5 melanoma = test system: SK-MEL-5 melanoma
NCI/ADR-RES ovarian = test system: NCI/ADR-RES ovarian
IGROV1 ovarian = test system: IGROV1 ovarian
HCT-116 colon = test system: HCT-116 colon
SK-OV-3 ovarian = test system: SK-OV-3 ovarian
OVCAR-5 ovarian = test system: OVCAR-5 ovarian
LOX IMVI melanoma = test system: LOX IMVI melanoma
SN12C renal = test system: SN12C renal
SNB-75 CNS = test system: SNB-75 CNS
BT-549 breast = test system: BT-549 breast
DU-145 prostate = test system: DU-145 prostate
SK-MEL-28 melanoma = test system: SK-MEL-28 melanoma
SNB-19 CNS = test system: SNB-19 CNS
MCF7 breast = test system: MCF7 breast
TK-10 renal = test system: TK-10 renal
SR leukemia = test system: SR leukemia
MOLT-4 leukemia = test system: MOLT-4 leukemia
SW-620 colon = test system: SW-620 colon

CCCCCCCCCCCCCC[P+](CCCCCC)(CCCCCC)CCCCCC
TGI (A498 renal): 1030 nM | GI50 (HCC-2998 colon): 168 nM | TGI (HCC-2998 colon): 1690 nM | GI50 (PC-3 prostate): 30 nM | TGI (PC-3 prostate): 125 nM | GI50 (SK-MEL-2 melanoma): 26.6 nM | TGI (SK-MEL-2 melanoma): > 100000 nM | GI50 (MDA-MB-435): 37.2 nM | TGI (MDA-MB-435): 391 nM | GI50 (U251 CNS): 38.4 nM | TGI (U251 CNS): 1290 nM | GI50 (RXF 393 renal): 141 nM | TGI (RXF 393 renal): 1400 nM | GI50 (786-0 renal): 253 nM | TGI (786-0 renal): 2100 nM | GI50 (KM12 colon): 39.7 nM | TGI (KM12 colon): 375 nM | GI50 (COLO 205 colon): 144 nM | TGI (COLO 205 colon): 2080 nM | GI50 (NCI-H460 lung): 315 nM | TGI (NCI-H460 lung): 1220 nM | GI50 (OVCAR-8 ovarian): 85.6 nM | TGI (OVCAR-8 ovarian): 1780 nM | GI50 (RPMI-8226 leukemia): 15.8 nM | TGI (RPMI-8226 leukemia): 39.5 nM | GI50 (SF-295 CNS): 78.3 nM | TGI (SF-295 CNS): 432 nM | GI50 (K-562 leukemia): 23.2 nM | TGI (K-562 leukemia): 85.8 nM | GI50 (HOP-62 NSCLC): 229 nM | GI50 (OVCAR-3 ovarian): 34.5 nM | TGI (OVCAR-3 ovarian): 295 nM | GI50 (SF-539 CNS): 202 nM | TGI (SF-539 CNS): 1720 nM | GI50 (EKVX NSCLC): 63.2 nM | TGI (EKVX NSCLC): 917 nM | GI50 (OVCAR-4 ovarian): 126 nM | GI50 (UO-31 renal): 290 nM | GI50 (NCI-H23 lung): 83 nM | TGI (NCI-H23 lung): 1400 nM | GI50 (HS 578T breast): 41 nM | GI50 (M14 melanoma): 52.1 nM | TGI (M14 melanoma): 2910 nM | GI50 (T-47D breast): 50.1 nM | GI50 (UACC-257 melanoma): 75.5 nM | TGI (UACC-257 melanoma): 790 nM | GI50 (HCT-15 colon): 270 nM | TGI (HCT-15 colon): > 100000 nM | GI50 (MDA-MB-231 breast): 59.6 nM | TGI (MDA-MB-231 breast): 1490 nM | GI50 (HT29 colon): 52.7 nM | TGI (HT29 colon): 3260 nM | GI50 (HL-60(TB) leukemia): 30.3 nM | TGI (HL-60(TB) leukemia): 96.6 nM | GI50 (ACHN renal): 260 nM | TGI (ACHN renal): 1510 nM | GI50 (CAKI-1 renal): 236 nM | TGI (CAKI-1 renal): 771 nM | GI50 (A549 NSCLC): 292 nM | TGI (A549 NSCLC): > 100000 nM | GI50 (MALME-3M melanoma): 27.1 nM | TGI (MALME-3M melanoma): 72.1 nM | GI50 (HOP-92 NSCLC): 29.9 nM | TGI (HOP-92 NSCLC): 423 nM | GI50 (UACC-62 melanoma): 42.2 nM | TGI (UACC-62 melanoma): 1900 nM | GI50 (NCI-H522 lung): 105 nM | TGI (NCI-H522 lung): 956 nM | GI50 (SK-MEL-5 melanoma): 82.9 nM | TGI (SK-MEL-5 melanoma): 258 nM | GI50 (NCI/ADR-RES ovarian): 730 nM | TGI (NCI/ADR-RES ovarian): > 100000 nM | GI50 (IGROV1 ovarian): 70.5 nM | TGI (IGROV1 ovarian): 25700 nM | GI50 (HCT-116 colon): 60.6 nM | TGI (HCT-116 colon): > 100000 nM | GI50 (SK-OV-3 ovarian): 200 nM | GI50 (OVCAR-5 ovarian): 267 nM | GI50 (LOX IMVI melanoma): 58.3 nM | TGI (LOX IMVI melanoma): 497 nM | GI50 (SN12C renal): 41 nM | TGI (SN12C renal): 1170 nM | GI50 (SNB-75 CNS): 125 nM | GI50 (BT-549 breast): 41.2 nM | TGI (BT-549 breast): 381 nM | GI50 (DU-145 prostate): 85.7 nM | TGI (DU-145 prostate): 1680 nM | GI50 (SK-MEL-28 melanoma): 101 nM | TGI (SK-MEL-28 melanoma): 1440 nM | GI50 (SNB-19 CNS): 68.8 nM | TGI (SNB-19 CNS): > 100000 nM | GI50 (MCF7 breast): 146 nM | TGI (MCF7 breast): 1300 nM | GI50 (TK-10 renal): 198 nM | TGI (TK-10 renal): 1920 nM | GI50 (SR leukemia): 19.6 nM | TGI (SR leukemia): 60.8 nM | GI50 (MOLT-4 leukemia): 68.9 nM | TGI (MOLT-4 leukemia): 952 nM | GI50 (SW-620 colon): 34.1 nM | TGI (SW-620 colon): 1150 nM
